Molecular target: T1, PfCRT variant E95A (Plasmodium falciparum, UniProt Q9N623, A220S/E95A/I356T/K76T/M74I/N326S/N75E/Q271E/R371I)
T1 sequence (Q9N623 1-424 M74I/N75E/K76T/E95A/A220S/Q271E/N326S/I356T/R371I): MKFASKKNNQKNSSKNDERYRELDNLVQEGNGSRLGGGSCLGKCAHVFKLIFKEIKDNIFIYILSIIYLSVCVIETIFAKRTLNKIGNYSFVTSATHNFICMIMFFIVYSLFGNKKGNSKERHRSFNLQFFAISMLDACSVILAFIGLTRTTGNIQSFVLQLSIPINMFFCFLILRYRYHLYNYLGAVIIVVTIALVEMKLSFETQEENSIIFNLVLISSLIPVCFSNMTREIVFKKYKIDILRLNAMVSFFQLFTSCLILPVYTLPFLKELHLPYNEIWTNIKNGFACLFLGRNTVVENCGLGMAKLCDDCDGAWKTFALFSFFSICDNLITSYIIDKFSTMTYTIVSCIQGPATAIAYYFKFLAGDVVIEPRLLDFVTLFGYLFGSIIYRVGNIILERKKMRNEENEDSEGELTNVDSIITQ
Assay: CQ uptake assay, oocytes expressing E95A
Type: cell-based
Method: Site-directed mutagenesis of PfCRT^Dd2 was performed as described using the megaprimer method with overlap extension[21],[54]. The primer pairs used are listed in Supplementary Table 6. Please note that a codon-optimized and oocyte-adapted version of PfCRT^Dd2 was used[22] (Supplementary Fig. 16). The resulting DNA fragment was cloned into the SP64T expression vector and verified by sequencing.
Oocytes were obtained as described previously. Briefly, adult (>2 years old) female X. laevis frogs (NASCO) were anesthetized in a cooled solution of ethyl 3-amino benzoate methanesulfonate (0.1%, w/v), followed by a surgical removal of parts of the ovary. The ovary lobes were carefully dissected and small pieces of oocytes were incubated in Ca^2+-free ND96 buffer (96 mM NaCl, 2 mM KCl, 1 mM MgCl2 buffered with 5 mM HEPES/NaOH, pH 7.5) supplemented with collagenase D (0.1%, w/v; Roche), BSA (0.5%, w/v), and 9 mm Na2HPO4 at 18 °C for 14-16 h while gentle shaking. After incubation, the oocytes were carefully washed several times with ND96 buffer (96 mM NaCl, 2 mM KCl, 1.8 mM CaCl2, 1 mM MgCl2 buffered with 5 mM HEPES/NaOH, pH 7.5) supplemented with 100 mg l^−1 gentamycin). Defolliculated and healthy-looking stage V-VI oocytes were manually selected for RNA microinjection. The RNA was generated as following: The codon-optimized sequences of PfCRT variants were cloned into the pSP64T expression vector. After vector linearization using the restriction endonucleases BamHI or SalI (New England Biolabs), transcription was performed using the in vitro SP6 mMessage mMachine Kit (Ambion)[34]. The obtained RNA was kept at −80 °C and diluted with nuclease-free water to a concentration of 0.6 μg μl^−1. […]
Drug uptake assays were performed as described previously[21],[22],[24],[34]. […] The radioactivity of each sample was measured using a liquid scintillation analyzer Tri-Carb 4910 TR (PerkinElmer). Oocytes that were injected with water instead of RNA were analyzed in parallel, representing the uptake of a drug by diffusion and/or endogenous permeation pathways. […]

## CCN(CC)CCCC(C)Nc1ccnc2cc(Cl)ccc12 (stereo not drawn) [CQ, chloroquine]
50 µM CQ, 1 h, mean ± SEM
  Activity at pH 4.5: 1.21 ± 0.20 pmol h-1 oocyte-1
  Activity at pH 6.0: 2.74 ± 0.74 pmol h-1 oocyte-1
CQ transport at pH 4.5 / pH 6.0
  R-value: 0.41 ± 0.11

Reference: publication PMC10349806 (Nature Communications, 2023)
